Source: patent publication US5472951A, “Stabilizer for phospholipid vesicles” (Chiba Flour Milling Co., Ltd., priority 1992, dated 1995)

Assays:
Type in all cases: physicochemical
[1] = dispersion stability: turbidity increase at 500 nm, standing at 25 °C for 3 days
[2] = particle diameter of modified vesicles; details: for average diameter: about 5 mol % modifier, ultrasonicator (Example 5 series)
[3] = viscosity of vesicle dispersion on addition of calcium ion (rotating viscometer); details: 5 mM calcium chloride
Method: The stability of the vesicles was evaluated as below. The precipitate of the vesicles prepared by centrifuge was dispersed again into saline by a vortex mixer. To this sample, calcium chloride (as calcium ion) was added to be 5 mM, and the viscosity of the dispersion was measured with a rotating viscometer (Vismetron VS-AK). The viscosity of 5 cp was not changed by addition of the calcium ion.
To this dispersion, calcium chloride (as calcium ion) was added to be 5 mM, and the viscosity of the dispersion was measured with a rotating viscometer (Vismetron VS-AK).
To this dispersion, calcium chloride (as calcium ion) was added to be 5 mM, and the viscosity of the dispersion was measured with a rotating viscometer (Vismetron VS-AK). The viscosity of 5 cp was not changed by addition of the calcium ion. On the contrary, the dispersion of the vesicles prepared from powdery lipid mixture not containing DACOA (DPPC:cholesterol:distearylphosphatidic acid=10:9:0.9 in molar ratio) aggregated immediately on addition of calcium ion because of negative charge on the surface of the vesicle, causing the viscosity rise up to 11 cp.
The stability of the dispersion of the DOLG-modified vesicles having adjusted particle diameters was evaluated by addition of 5 mM calcium chloride and observing the viscosity change. The viscosity was measured at 37° C. by a rotating viscometer. […] On the contrary, a dispersion of unmodified vesicles prepared from a powdery lipid mixture containing no DOLG (DPPC:cholesterol:stearic acid=7:7:2 in molar ratio) caused immediate aggregation of the vesicles on addition of calcium ion in the same manner as above because of the negative charge on the surface of the vesicle, and the viscosity increased up to 11 cp. Accordingly, the sufficient effect of the DOLG, a vesicle stabilizer of the present invention, was confirmed in inhibiting the aggregation of vesicles by calcium ion.

[4] = Table 1 / Example 5 series, about 5 mol % modifier
[5] = Table 2 / Example 8 series, 5 mol % modifier
[6] = DPPC vesicle, 5 mol % modifier (Example 8 series)
[7] = mixed lipid vesicles, 0.2 μm filter by extruder

| Compound | turbidity increase rate relative to unmodified DPPC vesicle dispersion (100%) [1, 4] [%] | turbidity increase rate relative to unmodified DPPC vesicle dispersion (100%) [1, 5] [%] | average particle diameter [2, 6] [nm] | average diameter ([2]; DPPC vesicle) [nm] | viscosity change on addition of calcium ion (in words) [3] | viscosity of the dispersion with calcium ion ([3]; Vismetron VS-AK) [cp] | average particle diameter [2, 7] [nm] | also measured |
| --- | --- | --- | --- | --- | --- | --- | --- | --- |
| CCCCCCCCCCCCCCCCNC(=O)[C@H](O)[C@@H](O)[C@H](O[C@H]1O[C@H](CO)[C@@H](O[C@H]2O[C@H](CO)[C@@H](O[C@H]3O[C@H](CO)[C@@H](O[C@H]4O[C@H](CO)[C@@H](O)[C@H](O)[C@H]4O)[C@H](O)[C@H]3O)[C@H](O)[C@H]2O)[C@H](O)[C@H]1O)[C@H](O)CO [MPCA, maltopentaose cetyl amide] | 6.3 | 12.7 | 32±9 | 32±7 | – | – | – | turbidity increase rate relative to unmodified DPPC vesicle dispersion (100%) ([1]; Table 2 / Example 8 series, 5 mol % modifier, listed as MCPA): 10.3%; turbidity rise / aggregation inhibiting effect (in words) ([1]; about 5 mol % modifier): little rise in turbidity |
| CCCCCCCCCCCCCCCCCCNC(=O)[C@H](O)[C@@H](O)[C@H](O)[C@H](O)CO[C@H]1O[C@H](CO[C@H]2O[C@H](CO[C@H]3O[C@H](CO[C@H]4O[C@H](CO[C@H]5O[C@H](CO)[C@@H](O)[C@H](O)[C@H]5O)[C@@H](O)[C@H](O)[C@H]4O)[C@@H](O)[C@H](O)[C@H]3O)[C@@H](O)[C@H](O)[C@H]2O)[C@@H](O)[C@H](O)[C@H]1O [IHSA, Isomaltohexose stearylamide] | – | – | – | – | not changed at all | 5 | 200 | inhibition of aggregation of vesicles by calcium ion (in words) [3]: inhibited nearly completely |
| dioctadecyl lactosyl glycerol [DOLG] | – | – | – | – | without viscosity increase | – | – | viscosity of the dispersion with calcium ion ([3]; 37 °C, shear rate 1.15 sec^-1): 5 cp |
| Maltopentaose dipalmitate [MPDP, reference compound] | 65.4 | – | – | 38±8 | – | – | – | – |
| CCCCCCCCCCCCCCCCNC(=O)[C@H](O)[C@@H](O)[C@H](O[C@H]1O[C@H](CO)[C@@H](O)[C@H](O)[C@H]1O)[C@H](O)CO [MCA, maltose cetyl amide] | – | 47.8 | 41±19 | – | – | – | – | increase of the turbidity depending on amount of modifier (order) ([1]; 5-25 mol %): 5 mol %>10 mol %>15 mol %>20 mol % ≤25 mol %; turbidity increase rate relative to unmodified DPPC vesicle dispersion (100%) ([1]; Table 2 / Example 8 series, 10 mol % modifier): 32.5%; turbidity increase rate relative to unmodified DPPC vesicle dispersion (100%) ([1]; Table 2 / Example 8 series, 15 mol % modifier): 19.9%; turbidity increase rate relative to unmodified DPPC vesicle dispersion (100%) ([1]; Table 2 / Example 8 series, 20 mol % modifier): 15.6%; turbidity increase rate relative to unmodified DPPC vesicle dispersion (100%) ([1]; Table 2 / Example 8 series, 25 mol % modifier): 17.2%; average particle diameter ([2]; DPPC vesicle, 10 mol % modifier (Example 8 series)): 35±13 nm; average particle diameter (in words) ([2]; DPPC vesicle, 15 mol % (MCA also 25 mol %) modifier): Nearly the same diameters; average particle diameter ([2]; DPPC vesicle, 20 mol % modifier (Example 8 series)): 36±10 nm |
| CCCCCCCC/C=C\CCCCCCCCNC(=O)[C@H](NC(C)=O)[C@@H](O)[C@H](O[C@@H]1O[C@H](CO)[C@@H](O)[C@H](O)[C@H]1NC(C)=O)[C@H](O)CO [DACOA, di-N-acetylchitobiose oleylamine] | – | – | – | – | not changed | 5 | 200 | – |
